Experimental findings from patent publication US20250346616A1 (DIZAL (JIANGSU) PHARMACEUTICAL CO., LTD., priority 2022, published 2025) are described below.

One test concerns HepG2 cells. The experiment in a line: Cell-based phospholipidosis assay (LipidTOX Red). Conditions: Homo sapiens, 24 h, LipidTOX Red dye. How it is done:
HepG2 cells were dispensed into Collagen I-coated 96-well black wall/clear bottom assay plates at 5000 cells/90 μL/well.
The assay plates were then incubated at 37° C. for 24 h, […] of 8% paraformaldehyde (4% final) fixative solution containing 8 μg/ml Hoechst 33342 (4 ug/mL final) in DPBS was added to each well. After incubation at room temperature for 25 min, the assay plates were washed with DPBS. The assay plates were sealed and stored at 4° C. before imaging.
The fluorescence intensities (595 nm excitation, 615 nm emission for LipidTOX Red; 352 nm excitation, 461 nm emission for Hoechst 33342) were measured using an High Content Screening System (Operetta, PerkinElmer) with a 10×Fluor objective. […] Average intensities were subjected to Prism and EC50 were calculated.

The next test concerns the target Recombinant ROCK1 (Homo sapiens (Human), UniProt Q13464). Nature of the test: Lance Ultra Kinase Assay, ROCK1 inhibition. The class given is biochemical. The settings on record: ATP at Km, 30 min pre-incubation, 1 h reaction.
For the next test, the system named is pMYPT1. The experiment in a line: Cellular PD assay, pMYPT1 in PASMC (western blot). The class given is cell-based. The settings on record: PASMC, 0.5 h; Human Pulmonary Artery Smooth Muscle Cells, 30 min incubation. How it is done: (§1) PASMC (Human Pulmonary Artery Smooth Muscle Cells) were grown in Smooth Muscle Cell Growth medium (Promocell #C-22162). The cells were resuspended at 3×10^5 cells per well in 6-well plate in Smooth Muscle Cell Growth medium (Promocell #C-22162) and incubated compound concentration range: (10000/1111/333/111/37/12.3/4.1/0.41/0 nM) for 30 min.
(§2) Cells were then placed on ice and washed with ice-cold PBS. Cell lysates were prepared with 2×SDS. Separate proteins by SDS-PAGE 2 hr, transfer of proteins form gel to membrane 90 min, Blocking the membrane with 5% milk 1 hr and incubation in primary antibody overnight at 4° C., Incubate the membrane in HRP-conjugated secondary antibody diluted in blocking buffer (1:2000) for 1 hour at room temperature. Detection using Amersham ECL plus western blotting detection system (LAS4000). The purified product was analysed by SDS PAGE and the amount of target protein calculated by gray scanning by Multi-Gauge V3.0 software.
On the technique in general: Immunoblotting shows a protein as a band on a membrane.

The subject of another test is pMLC2. Nature of the test: Cellular PD assay, pMLC2 in PASMC (western blot). Format: cell-based. Conditions: PASMC, 0.5 h; Human Pulmonary Artery Smooth Muscle Cells, 30 min incubation. The method, then:
as §1, §2

Another test deals with Recombinant ROCK2 (Homo sapiens (Human), UniProt O75116). Nature of the test: Lance Ultra Kinase Assay, ROCK2 inhibition. Format: biochemical. Conditions: ATP at Km, 30 min pre-incubation, 1 h reaction.
Chain of Recombinant ROCK2 (O75116 whole entry): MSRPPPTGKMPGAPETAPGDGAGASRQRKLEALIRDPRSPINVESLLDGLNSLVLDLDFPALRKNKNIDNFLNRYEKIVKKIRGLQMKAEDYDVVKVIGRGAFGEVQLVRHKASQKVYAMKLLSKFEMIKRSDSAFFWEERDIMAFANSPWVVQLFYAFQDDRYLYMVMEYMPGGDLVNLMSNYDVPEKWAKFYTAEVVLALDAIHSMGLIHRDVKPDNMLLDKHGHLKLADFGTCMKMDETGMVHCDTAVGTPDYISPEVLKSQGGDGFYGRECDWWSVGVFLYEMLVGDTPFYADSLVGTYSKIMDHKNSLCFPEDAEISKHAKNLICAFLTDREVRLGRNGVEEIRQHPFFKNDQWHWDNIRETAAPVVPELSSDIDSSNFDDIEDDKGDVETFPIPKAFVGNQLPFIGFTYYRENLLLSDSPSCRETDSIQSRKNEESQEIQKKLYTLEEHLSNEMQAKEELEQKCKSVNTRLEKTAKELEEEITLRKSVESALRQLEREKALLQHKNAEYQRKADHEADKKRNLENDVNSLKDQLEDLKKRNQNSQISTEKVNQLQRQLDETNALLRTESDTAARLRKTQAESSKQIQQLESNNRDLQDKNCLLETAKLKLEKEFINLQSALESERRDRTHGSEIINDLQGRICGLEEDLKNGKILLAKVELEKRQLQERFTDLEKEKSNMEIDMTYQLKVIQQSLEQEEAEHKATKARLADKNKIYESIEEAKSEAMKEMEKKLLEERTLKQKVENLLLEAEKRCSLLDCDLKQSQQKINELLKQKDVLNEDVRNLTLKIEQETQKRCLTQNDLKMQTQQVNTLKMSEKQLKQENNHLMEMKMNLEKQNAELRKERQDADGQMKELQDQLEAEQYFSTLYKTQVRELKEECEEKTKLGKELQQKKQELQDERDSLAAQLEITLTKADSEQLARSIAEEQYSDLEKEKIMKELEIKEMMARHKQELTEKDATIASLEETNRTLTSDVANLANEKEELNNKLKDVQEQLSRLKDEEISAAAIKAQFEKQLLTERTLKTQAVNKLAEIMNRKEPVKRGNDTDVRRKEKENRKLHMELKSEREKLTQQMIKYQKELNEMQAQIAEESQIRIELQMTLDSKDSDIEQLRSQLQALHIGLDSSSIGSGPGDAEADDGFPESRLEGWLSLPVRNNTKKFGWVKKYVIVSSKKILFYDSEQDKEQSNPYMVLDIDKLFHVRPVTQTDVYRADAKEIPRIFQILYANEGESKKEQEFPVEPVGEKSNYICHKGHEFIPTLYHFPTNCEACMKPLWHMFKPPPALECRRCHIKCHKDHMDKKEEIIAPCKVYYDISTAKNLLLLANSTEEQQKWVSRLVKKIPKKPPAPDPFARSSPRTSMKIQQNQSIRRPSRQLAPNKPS

pIC50: −log10 of the molar value.

As a reminder, the EC50 is the concentration that produces a half-maximal response. For orientation: pIC50 means the IC50 on a negative log10 scale, so that one unit is a factor of ten. Usually IC50 stands for the point on the concentration scale where inhibition reaches its midpoint. Low values mean higher potency, high ones lower potency.

Chain of Recombinant ROCK1 (Q13464 whole entry): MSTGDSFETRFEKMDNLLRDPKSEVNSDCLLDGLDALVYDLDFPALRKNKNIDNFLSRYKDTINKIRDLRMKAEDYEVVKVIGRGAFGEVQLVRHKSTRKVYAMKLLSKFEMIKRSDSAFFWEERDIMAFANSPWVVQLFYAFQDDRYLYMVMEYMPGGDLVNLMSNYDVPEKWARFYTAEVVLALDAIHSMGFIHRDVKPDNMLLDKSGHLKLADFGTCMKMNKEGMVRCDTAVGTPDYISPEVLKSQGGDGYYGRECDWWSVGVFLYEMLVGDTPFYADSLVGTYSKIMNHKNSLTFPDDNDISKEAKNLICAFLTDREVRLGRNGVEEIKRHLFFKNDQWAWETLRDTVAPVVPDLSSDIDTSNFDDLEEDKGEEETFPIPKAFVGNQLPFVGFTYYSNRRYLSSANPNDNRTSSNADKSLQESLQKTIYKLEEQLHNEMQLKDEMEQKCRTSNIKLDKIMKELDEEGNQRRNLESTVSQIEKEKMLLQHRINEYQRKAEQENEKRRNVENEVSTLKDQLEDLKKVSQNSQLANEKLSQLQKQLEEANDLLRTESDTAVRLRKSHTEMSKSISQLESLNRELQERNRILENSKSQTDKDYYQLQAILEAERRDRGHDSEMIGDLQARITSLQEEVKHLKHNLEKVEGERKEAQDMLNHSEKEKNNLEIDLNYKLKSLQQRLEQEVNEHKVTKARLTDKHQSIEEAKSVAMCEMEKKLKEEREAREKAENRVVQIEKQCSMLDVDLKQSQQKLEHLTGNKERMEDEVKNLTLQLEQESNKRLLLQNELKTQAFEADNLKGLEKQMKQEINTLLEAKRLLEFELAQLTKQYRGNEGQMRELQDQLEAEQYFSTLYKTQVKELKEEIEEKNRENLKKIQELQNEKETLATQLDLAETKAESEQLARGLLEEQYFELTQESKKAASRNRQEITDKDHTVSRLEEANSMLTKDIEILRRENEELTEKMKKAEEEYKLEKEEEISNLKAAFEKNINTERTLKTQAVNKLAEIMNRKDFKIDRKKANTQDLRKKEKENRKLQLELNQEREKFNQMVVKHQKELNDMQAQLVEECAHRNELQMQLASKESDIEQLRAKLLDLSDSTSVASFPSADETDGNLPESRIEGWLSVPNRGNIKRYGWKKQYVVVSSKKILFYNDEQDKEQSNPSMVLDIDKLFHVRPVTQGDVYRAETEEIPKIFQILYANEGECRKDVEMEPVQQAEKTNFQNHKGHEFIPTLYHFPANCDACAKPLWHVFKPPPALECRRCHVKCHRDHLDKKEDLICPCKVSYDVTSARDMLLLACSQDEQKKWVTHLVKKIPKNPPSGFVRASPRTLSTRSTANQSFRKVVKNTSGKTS

On to `CN1CCN(CC(C(=O)Nc2cccc3c(-c4cn[nH]c4)c[nH]c23)c2ccccc2)CC1` (single isomer, unassigned) [Example 38, N-(3-(1H-pyrazol-4-yl)-1H-indol-7-yl)-3-(4-methylpiperazin-1-yl)-2-phenylpropanamide], for which the EC50 in the test with HepG2 cells was 6.23 µM. Also, the pIC50 was 9.36 on Recombinant ROCK1 and 9.59 on Recombinant ROCK2. Moreover, the IC50 in the test with pMYPT1 amounted to 13 nM; in the test on pMLC2, 8.2 nM.

For the molecule `N#Cc1ccc(C(CN)C(=O)Nc2cccc3c(-c4cn[nH]c4)c[nH]c23)cc1` (single isomer, unassigned) [Example 59, N-(3-(1H-pyrazol-4-yl)-1H-indol-7-yl)-3-amino-2-(4-cyanophenyl)propanamide], in the test on HepG2 cells, the EC50 was greater than 66.6 µM. The pIC50 on Recombinant ROCK1 is 8.57; at Recombinant ROCK2 it was 9.08. For the same molecule, the IC50 in the test on pMYPT1 was 155 nM; in the test on pMLC2 it was 61 nM.

`COc1cccc([C@@H](N)C(=O)Nc2cccc3c(-c4cn[nH]c4)c[nH]c23)c1` [Example 42, (2R)-2-amino-2-(3-methoxyphenyl)-N-[3-(1H-pyrazol-4-yl)-1H-indol-7-yl]acetamide]: the EC50 with HepG2 cells was greater than 200 µM. For the same molecule, the pIC50 at Recombinant ROCK1 was 9.74; at Recombinant ROCK2, 10.00. The IC50 in the test with pMYPT1 was found to be 2.8 nM; in the test on pMLC2, 3 nM.
